Patent US11312722B2, “Hsp90 inhibitors and uses thereof” (TRUSTEES OF BOSTON UNIVERSITY, priority 2019, dated 2022)
Like-named read-outs stand apart in the source and are kept apart here.

How the values were obtained:
[1] = tested on: C. neoformans (Strain H99); assay: Antifungal sensitivity testing (MIC), C. neoformans H99; assay type: cell-based; conditions: for MIC80 / MIC90: Cryptococcus neoformans; for MIC80: read-out: C. neo MIC80; for MIC90: read-out: C. neo MIC90
Description: Color scale bar: no growth inhibition (green) to complete inhibition (black). Each shaded box represents the mean of technical duplicates. The experiment was repeated as an independent biological replicate to confirm results.
Minimum inhibitory concentration (MIC) value for compounds against C. neoformans (Strain H99) was determined in dose-response format, in technical duplicate. Experiments were conducted in RPMI medium at 37° C. for 48 h. Relative viable cell number was measured by standard dye reduction (resazurin) assay.
Yeast strains and culture conditions. Strains used in this study were C. albicans CaCi2 (clinical isolate 2), [58] SC5314, [59] and C. neoformans H99. […] Active cultures were maintained on solid (2% agar) yeast extract peptone (YPD, 1% yeast extract, 2% bactopeptone, 2% glucose) at 4° C. for no more than one month.
Antifungal sensitivity testing. […] Each compound was tested in duplicate in at least two independent experiments. […] Plates were photographed after 24 h of incubation at 30° C.

[2] = tested on: Hsp90 (C. albicans whole cell lysate); assay: biochemical; assay type: binding; conditions: for C. alb Selective: Yes/No call
Description: (§1) All analogs were assessed for Hsp90 binding affinity using a fluorescence polarization (FP)-based equilibrium competition assay in fungal and human whole cell lysates. […] Using lysates, the relative potency and selectivity for fungal Hsp90 was measured versus the entire ensemble of human Hsp90 isoforms in microplate format using small amounts of test materials. […] Thermal shift assays were performed under saturating ligand conditions, i.e. equimolar concentrations (10 μM) of protein and ligand. As a result, they provided qualitative evidence of target binding, but not a quantitative measurement of ligand affinity. For quantitation, a ligand dissociation constant (Ki) for key compounds was also determined using purified NBDs in FP assays and KD measurements were made by surface plasmon resonance (SPR) using a Biacore instrument. Finally, all analogs were assessed for whole cell antifungal activity against the pathogens C. albicans and C. neoformans.
(§2) FP assays. Whole cell lysates were prepared for FP assays as described previously. Total protein concentration of human and yeast lysates was determined by Bradford assay. […] Serial dilutions of test Hsp90 inhibitors were then assayed under these same conditions to monitor loss of fluorescence polarization as an indicator of probe displacement from Hsp90. […] Titrations of test compound in 25 μL of binding buffer (supplemented with 0.1 mg/mL bovine gamma globulin), were mixed with an equal volume of freshly prepared whole-cell lysate spiked with Cy3-GdA (0.1 nM). Plates were incubated at room temperature for 4.5 h to achieve equilibrium binding for the geldanamycin-based probe. […] Non-linear 4-parameter curve fitting of raw displacement data was performed in GraphPad Prism 5.0 to determine EC50 values as a measure of relative Hsp90-binding affinity. Results were normalized to the value determined for GdA in lysate of each cell type.
(§3) Statistical methods. […] In calculating the error of selectivity determinations, the fractional error of measurements in each species was summed to yield a composite error for the derived ratio.

[3] = molecular target: Hsp90 (C. albicans whole cell lysate) (Candida albicans (strain SC5314 / ATCC MYA-2876) (Yeast), UniProt P46598); assay: biochemical; assay type: binding; conditions: for C. alb Active (biochemical): Yes/No call
Description: as §1, §2, §3

[4] = tested on: Hsp90 (C. neoformans whole cell lysate); assay type: binding; conditions: C. neo FS calculated using EC50
Description: as §1, §2, §3

[5] = molecular target: Hsp90 (C. neoformans whole cell lysate) (Cryptococcus neoformans, UniProt J9VVA4); assay type: binding; conditions: for EC50: read-out: C. neo EC50
Chain of Hsp90 (C. neoformans whole cell lysate) (Cryptococcus neoformans, UniProt J9VVA4) (J9VVA4 1-699): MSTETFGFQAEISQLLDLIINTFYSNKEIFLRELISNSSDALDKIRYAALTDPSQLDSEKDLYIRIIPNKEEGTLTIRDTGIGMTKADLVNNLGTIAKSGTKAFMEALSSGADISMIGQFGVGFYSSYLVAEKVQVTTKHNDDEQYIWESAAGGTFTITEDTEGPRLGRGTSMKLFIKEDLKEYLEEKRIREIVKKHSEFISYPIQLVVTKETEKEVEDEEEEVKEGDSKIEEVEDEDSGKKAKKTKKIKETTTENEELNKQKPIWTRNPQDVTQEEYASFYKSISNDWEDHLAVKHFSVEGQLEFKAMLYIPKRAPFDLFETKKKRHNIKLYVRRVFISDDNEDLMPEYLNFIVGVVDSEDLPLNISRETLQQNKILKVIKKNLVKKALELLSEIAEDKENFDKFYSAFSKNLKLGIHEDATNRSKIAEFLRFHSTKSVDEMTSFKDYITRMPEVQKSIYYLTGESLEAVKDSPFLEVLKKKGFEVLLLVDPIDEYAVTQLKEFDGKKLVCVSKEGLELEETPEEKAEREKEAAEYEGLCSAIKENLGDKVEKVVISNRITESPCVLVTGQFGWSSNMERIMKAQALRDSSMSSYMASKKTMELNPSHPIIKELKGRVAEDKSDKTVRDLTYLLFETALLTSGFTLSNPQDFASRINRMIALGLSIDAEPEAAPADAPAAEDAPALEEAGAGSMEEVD
Description: as §1, §2, §3

MIC80 [1]	MIC90 [1]	C. alb Active (biochemical) [3]	Structure (SMILES)	also measured
> 25 µM	> 25 µM	Yes	Cn1nc(-c2ccccc2)cc1Nc1cc(O)cc(O)c1C(=O)N1Cc2cn[nH]c2C1 [Compound 93, 5-((1-Methyl-3-phenyl-1H-pyrazol-5-yl)amino)-4-(1H,4H,5H,6H-pyrrolo[3,4-c]pyrazole-5-carbonyl)benzene-1,3-diol]	
> 25 µM	> 25 µM	Yes	Cn1nc(-c2cccc(C(F)(F)F)c2)cc1Nc1cc(O)cc(O)c1C(=O)N1Cc2cccnc2C1 [Compound 116, 5-((1-Methyl-3-(3-(trifluoromethyl)phenyl)-1H-pyrazol-5-yl)amino)-4-(5H,6H,7H-pyrrolo[3,4-b]pyridine-6-carbonyl)benzene-1,3-diol]	
> 25 µM	> 25 µM	Yes	CC(C)(C)n1nc(-c2ccccc2)cc1Nc1cc(O)cc(O)c1C(=O)N1Cc2cccnc2C1 [Compound 94, 5-((1-tert-Butyl-3-phenyl-1H-pyrazol-5-yl)amino)-4-(5H,6H,7H-pyrrolo[3,4-b]pyridine-6-carbonyl)benzene-1,3-diol]	
> 25 µM	> 25 µM	Yes	Cc1ccccc1-c1cc(Nc2cc(O)cc(O)c2C(=O)N2Cc3cccnc3C2)n(C)n1 [Compound 107, 5-((1-Methyl-3-(2-methylphenyl)-1H-pyrazol-5-yl)amino)-4-(5H,6H,7H-pyrrolo[3,4-b]pyridine-6-carbonyl)benzene-1,3-diol]	
> 25 µM	> 25 µM	Yes	CC(C)(C)n1nc(-c2ccccc2)cc1Nc1cc(O)cc(O)c1C(=O)N1Cc2cn[nH]c2C1 [Compound 95, 5-((1-tert-Butyl-3-phenyl-1H-pyrazol-5-yl)amino)-4-(1H,4H,5H,6H-pyrrolo[3,4-c]pyrazole-5-carbonyl)benzene-1,3-diol]	
> 25 µM	> 25 µM	Yes	Cc1cccc(-c2cc(Nc3cc(O)cc(O)c3C(=O)N3Cc4cccnc4C3)n(C)n2)c1 [Compound 110, 5-((1-Methyl-3-(3-methylphenyl)-1H-pyrazol-5-yl)amino)-4-(5H,6H,7H-pyrrolo[3,4-b]pyridine-6-carbonyl)benzene-1,3-diol]	
> 25 µM	> 25 µM	Yes	COc1ccc(-c2cc(Nc3cc(O)cc(O)c3C(=O)N3Cc4cn[nH]c4C3)n(C)n2)cc1 [Compound 123, 5-((3-(4-Methoxyphenyl)-1-methyl-1H-pyrazol-5-yl)amino)-4-(1H,4H,5H,6H-pyrrolo[3,4-c]pyrazole-5-carbonyl)benzene-1,3-diol]	
> 25 µM	> 25 µM	Yes	Cc1cccc(-c2cc(Nc3cc(O)cc(O)c3C(=O)N3Cc4ccccc4C3)n(C)n2)c1 [Compound 109, 4-(2,3-Dihydro-1H-isoindole-2-carbonyl)-5-((1-methyl-3-(3-methylphenyl)-1H-pyrazol-5-yl)amino)benzene-1,3-diol]	
> 25 µM	> 25 µM	Yes	Cn1nc(-c2cccc(C(F)(F)F)c2)cc1Nc1cc(O)cc(O)c1C(=O)N1Cc2ccccc2C1 [Compound 115, 4-(2,3-Dihydro-1H-isoindole-2-carbonyl)-5-((1-methyl-3-(3-(trifluoromethyl)phenyl)-1H-pyrazol-5-yl)amino)benzene-1,3-diol]	
> 25 µM	> 25 µM	Yes	COc1ccc(-c2cc(Nc3cc(O)cc(O)c3C(=O)N3Cc4cccnc4C3)n(C)n2)cc1 [Compound 122, 5-((3-(4-Methoxyphenyl)-1-methyl-1H-pyrazol-5-yl)amino)-4-(5H,6H,7H-pyrrolo[3,4-b]pyridine-6-carbonyl)benzene-1,3-diol]	
> 25 µM	> 25 µM	Yes	Cc1ccc(-c2cc(Nc3cc(O)cc(O)c3C(=O)N3Cc4cccnc4C3)n(C)n2)cc1 [Compound 119, 5-((1-Methyl-3-(4-methylphenyl)-1H-pyrazol-5-yl)amino)-4-(5H,6H,7H-pyrrolo[3,4-b]pyridine-6-carbonyl)benzene-1,3-diol]	
> 25 µM	> 25 µM		COc1ccc(Cn2nc(-c3ccccc3)cc2Nc2cc(O)cc(O)c2C(=O)N2Cc3cccnc3C2)cc1 [Compound 23, 5-((1-((4-Methoxyphenyl)methyl)-3-phenyl-1H-pyrazol-5-yl)amino)-4-(5H,6H,7H-pyrrolo[3,4-b]pyridine-6-carbonyl)benzene-1,3-diol]	C. neo Active (cells) ([1]; Yes/No call): No; C. neo Active (biochemical) ([5]; Yes/No call): Yes
> 25 µM	> 25 µM	Yes	Cn1nc(C2CCCCC2)cc1Nc1cc(O)cc(O)c1C(=O)N1Cc2cccnc2C1 [Compound 104, 5-((3-Cyclohexyl-1-methyl-1H-pyrazol-5-yl)amino)-4-(5H,6H,7H-pyrrolo[3,4-b]pyridine-6-carbonyl)benzene-1,3-diol]	
> 25 µM	> 25 µM	Yes	Cc1ccccc1-c1cc(Nc2cc(O)cc(O)c2C(=O)N2Cc3cn[nH]c3C2)n(C)n1 [Compound 108, 5-((1-Methyl-3-(2-methylphenyl)-1H-pyrazol-5-yl)amino)-4-(1H,4H,5H,6H-pyrrolo[3,4-c]pyrazole-5-carbonyl)benzene-1,3-diol]	

Structure (SMILES)	MIC80 [1]	MIC90 [1]	C. alb Active (biochemical) [3]	also measured
Cc1nn(-c2cccc(C(F)(F)F)c2)c(C)c1Nc1cc(O)cc(O)c1C(=O)N1Cc2ccccc2C1 [ACSM01494, (2-((3,5-Dimethyl-1-(3-(trifluoromethyl)phenyl)-1H-pyrazol-4-yl)amino)-4,6-dihydroxyphenyl)(isoindolin-2-yl)methanone]	> 25 µM	> 25 µM	Yes	C. alb Selectivity (FS) [2]: 1.8; C. alb Selective [2]: No; EC50 ([3]; read-out: C. alb EC50): 1.59 µM; C. neo Selectivity (FS) [4]: 97.7; EC50 [5]: 0.03 µM
Cc1cccc(-c2cc(Nc3cc(O)cc(O)c3C(=O)N3Cc4ccc(N5CCOCC5)cc4C3)n(C)n2)c1 [ACSM01280]			No	C. neo MIC80 [1]: >25 µM; C. neo MIC90 [1]: >25 µM; C. alb Selective [2]: No; EC50 ([3]; read-out: C. alb EC50): > 10 µM; C. neo Selectivity (FS) [4]: 6; EC50 [5]: 2 µM
O=C(O)Cn1nc(-c2ccccc2)cc1Nc1cc(O)cc(O)c1C(=O)N1Cc2ccccc2C1 [ACSM01476]			Yes	C. neo MIC80 [1]: >25 µM; C. neo MIC90 [1]: >25 µM; C. alb Selectivity (FS) [2]: 1.4; C. alb Selective [2]: No; EC50 ([3]; read-out: C. alb EC50): 2.12 µM; C. neo Selectivity (FS) [4]: 5.8; EC50 [5]: 0.537 µM
COc1ccc(Cn2nc(C)cc2Nc2cc(O)cc(O)c2C(=O)N(C)CC2CC2)cc1 [Compound 30, N-(Cyclopropylmethyl)-2,4-dihydroxy-6-((1-((4-methoxyphenyl)methyl)-3-methyl-1H-pyrazol-5-yl)amino)-N-methylbenzamide]	> 25 µM	> 25 µM	No	EC50 ([3]; FP competition, whole cell lysate, duplicate, screening experiment, read-out: C. albicans EC50): > 9 µM; EC50 ([3]; read-out: C. alb EC50): > 9 µM
COc1cccc(-c2cc(Nc3cc(O)cc(O)c3C(=O)N3Cc4cccc(F)c4C3)n(C)n2)c1 [ACSM01130]			Yes	C. neo MIC80 [1]: >50 µM; C. neo MIC90 [1]: >50 µM; EC50 ([3]; read-out: C. alb EC50): 5.82 µM
